Data reported in patent publication US20260306500A1, “METHOD OF INHIBITING ADENOSINE TRIPHOSPHATE SECRETION, METHOD OF INHIBITING HEPATIC STELLATE CELL ACTIVATION, METHOD OF DEACTIVATING HEPATIC STELLATE CELL, METHOD OF TREATING HEPATIC FIBROSIS, METHOD OF TREATING NON-ALCOHOLIC STEATOHEPATITIS, AND METHOD OF TREATING PSORIASIS” (Kurume University, priority 2023, published 2026).
Counter-ions that a name gives are not always drawn.

Legend:
[1] = test system: chromaffin granule membrane; assay: ATP transport (uptake of radiolabeled ATP) in chromaffin granule membrane vesicles; format: biochemical, cattle; details: role: inhibitor, MANT-ATP
Protocol: (§1) Chromaffin granule membranes were prepared from adrenal glands collected from slaughtered cattle according to Reference A (Nathan Nelson et al., 1988, Chromaffin Granule Proton Pump, Methods in Enzymology, 157, 619-633). Chromaffin granule membranes prepared by sucrose density gradient centrifugation were suspended in 2 ml of SME buffer (20 mM MOPS-tris (pH 7.0), 0.3 M sucrose, 5 mM EDTA, 10 μg/ml leupeptin, and 10 μg/ml pepstatin)+25% glycerol, and the resulting suspension was aliquoted and stored at −80° C. Under these conditions, the ATP transport activity, the V-ATPase activity, and the catecholamine transport activity remain fully active for at least one year.
An ATP transport inhibition experiment for the chromaffin granule membrane was carried out according to Reference B (Yoshinori Moriyama et al., 2022, Is the vesicular nucleotide transporter a molecular target of eicosapentaenoic acid?, Frontiers in Pharmacology, 103389). About 20 μg of chromaffin granule membranes were added to 0.5 ml of measurement buffer (20 mM MOPS-tris (pH 7.0), 0.3 M sucrose, 5 mM potassium chloride, 5 mM magnesium acetate, 5 mM creatine phosphate, 10 units of creatine kinase, and 1 mM 3[H]-ATP [15 KBq/assay]), followed by incubation at 30° C. for 1 hour. Through a Millipore MCE membrane filter with a pore size […], 0.2 ml of the reaction liquid was filtered by suction. Thereafter, the filter was washed with 10 ml of 20 mM MOPS-tris (pH 7.0), 0.3 M sucrose, 5 mM potassium chloride, and 5 mM magnesium acetate, and dissolved in 10 ml of Clear-sol II (manufactured by Nacalai Tesque, Inc.). The radioactivity was then measured using a liquid scintillation counter (N=3).
The reaction was initiated by adding 50 mM ^3[H]-ATP to a final concentration of 1 mM. The 50 mM ^3[H]-ATP was prepared by mixing an ATP-tris solution (manufactured by Sigma-Aldrich) with [2,8-^3H]adenosine triphosphate tetrasodium salt (26.0 Ci/mmol) (manufactured by New England Nuclear). PEP was used as a test reagent, and pyruvic acid was used as a negative control. Five minutes before the addition of ATP, PEP or pyruvic acid, as a solution in 20 mM MOPS-tris (pH 7.0), 0.3 M sucrose, 5 mM potassium chloride, and 5 mM magnesium acetate, was added to the measurement liquid to a final PEP concentration of 0.02, 0.05, 0.1, 0.2, 0.4, or 1 mM, or to a final pyruvic acid concentration of 0.5 or 1 mM.
(§2) Chromaffin granule membrane vesicles were prepared in the same manner as in Example 5, and uptake of radiolabeled ATP into the vesicles was measured. Transport activity of catecholamine (dopamine) and ATP-dependent proton transport by V-ATPase were also measured in the same manner as in Example 5.

[2] = test system: ATP-loaded vesicles of keratinocytes; assay: Accumulation of MANT-ATP in granules of keratinocytes (confocal microscopy); format: cell-based, human; details: 0.3 mM MANT-ATP, control without imeglimin (FIG. 13)
Protocol: Keratinocytes were cultured in the same manner as in Example 8. Keratinocytes were cultured at 4×10^4 cells/ml in a glass-bottom dish (35 mm, manufactured by Matsunami Glass Ind., Ltd.) at 37° C. in 5% CO2 for 2 days. The culture medium was then replaced with a medium supplemented with MANT-ATP (manufactured by Invitrogen) at a final concentration of 0.3 mM, and further incubation was performed for 4.5 hours. Subsequently, imeglimin was added thereto to a final concentration of 10 μM, and further incubation was performed at 37° C. in 5% CO2 for 19 hours. Thereafter, the cells were washed twice with HBSS (manufactured by Gibco) and observed using an inverted confocal laser microscope (FV-1000 OSR, manufactured by Olympus Corporation).

[3] = test system: catecholamine transport of chromaffin granule membranes; assay: Catecholamine (dopamine) transport in chromaffin granule membranes; format: biochemical, cattle; details: role: inhibitor; MANT-ATP, N=3 (FIG. 11)
Protocol: as §1
A catecholamine transport inhibition experiment was carried out in the same manner as the ATP transport experiment except that the experiment used a measurement liquid containing 20 mM MOPS-tris (pH 7.0), 0.1 M sucrose, 0.1 M potassium chloride, 5 mM magnesium acetate, and about 5 μg of chromaffin granule membranes. To 0.5 ml of the measurement liquid, 2 mM ATP was added, and the resulting mixture was incubated at 30° C. for about 5 minutes, followed by addition of 3[H]-dopamine thereto to a final concentration of 10 μM. After further incubation at 30° C. for 15 minutes, 0.2 ml of the reaction liquid was subjected to suction filtration through a Millipore MCE membrane filter with a pore size of 0.45 μm, and the radioactivity on the filter was measured (N=3). The substrate, 3[H]-dopamine, was prepared by mixing 3,4-[RING-2,5,6-^3H]dihydroxyphenylethylamine (dopamine) (30 Ci/mmol) (manufactured by New England Nuclear) with dopamine hydrochloride (manufactured by LKT Laboratories) such that a final concentration of […] was achieved during the use.
as §2

V-ATPase [4] = target: T1, V-ATPase (Bos taurus, UniProt P31404+P31408); assay: ATP-dependent proton transport by V-ATPase (acridine orange fluorescence quenching); format: biochemical, cattle
T1 construct: Chromaffin granule membranes were prepared from adrenal glands collected from slaughtered cattle; from tissue; host or cells: cattle adrenal glands, chromaffin granule membranes (sucrose density gradient)
T1 sequence (P31404 whole entry, looked up): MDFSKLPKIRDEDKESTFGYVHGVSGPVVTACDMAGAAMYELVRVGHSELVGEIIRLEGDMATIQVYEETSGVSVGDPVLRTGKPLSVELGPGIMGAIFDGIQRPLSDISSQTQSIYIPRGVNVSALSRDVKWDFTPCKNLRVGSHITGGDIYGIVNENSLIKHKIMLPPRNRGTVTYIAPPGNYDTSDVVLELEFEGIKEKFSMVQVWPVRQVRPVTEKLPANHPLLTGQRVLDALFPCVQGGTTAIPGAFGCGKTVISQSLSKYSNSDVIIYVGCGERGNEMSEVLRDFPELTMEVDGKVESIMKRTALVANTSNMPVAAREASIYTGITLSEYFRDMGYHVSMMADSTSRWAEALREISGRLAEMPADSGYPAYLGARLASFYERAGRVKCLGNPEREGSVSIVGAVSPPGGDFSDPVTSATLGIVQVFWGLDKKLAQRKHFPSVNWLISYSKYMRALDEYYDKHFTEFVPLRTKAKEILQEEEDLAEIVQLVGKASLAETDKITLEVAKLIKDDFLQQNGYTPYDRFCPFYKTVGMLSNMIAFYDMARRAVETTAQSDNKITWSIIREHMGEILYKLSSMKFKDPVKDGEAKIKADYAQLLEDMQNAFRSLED
T1 sequence (P31408 whole entry, looked up): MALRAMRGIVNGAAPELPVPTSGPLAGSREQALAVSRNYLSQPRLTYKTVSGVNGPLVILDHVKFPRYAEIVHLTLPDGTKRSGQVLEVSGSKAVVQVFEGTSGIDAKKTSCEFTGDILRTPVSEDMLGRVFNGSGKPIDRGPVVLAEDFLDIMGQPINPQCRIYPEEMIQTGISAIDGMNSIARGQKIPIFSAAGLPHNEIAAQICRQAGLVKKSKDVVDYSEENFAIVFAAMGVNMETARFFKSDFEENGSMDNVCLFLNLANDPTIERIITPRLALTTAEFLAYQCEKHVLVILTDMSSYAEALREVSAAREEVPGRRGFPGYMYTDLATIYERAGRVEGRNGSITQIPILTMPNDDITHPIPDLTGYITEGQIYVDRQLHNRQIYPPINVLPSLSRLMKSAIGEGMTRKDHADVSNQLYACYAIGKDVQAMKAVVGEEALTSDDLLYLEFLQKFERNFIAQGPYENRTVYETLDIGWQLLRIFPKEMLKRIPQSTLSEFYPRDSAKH
Protocol: as §1
ATP-dependent proton transport by V-ATPase was measured according to Reference B. Proton transport activity was measured using a spectrofluorometer at excitation wavelength of 492 nm and a fluorescence wavelength 540 nm, wherein fluorescence quenching of acridine orange was used as an index (N=2). The transmembrane potential generated was measured using a spectrofluorometer at an excitation wavelength of 580 nm and a fluorescence wavelength of 630 nm, wherein fluorescence quenching of oxonol-V was used as an index (N=2). The acridine measurement liquid (2 ml) contained 20 mM MOPS-tris (pH 7.0), 0.2 M sucrose, 0.1 M potassium chloride, 5 mM magnesium acetate, 0.2 μg valinomycin, 2 μM acridine orange, and about 20 μg of chromaffin granules. The oxonol-V measurement liquid (2 ml) contained 20 mM MOPS-tris (pH 7.0), 0.3 M sucrose, 5 mM magnesium acetate, 5 μM oxonol-V, and about 20 μg of chromaffin granules.
as §2

V-ATPase [5] = assay: Inhibitory effect on V-ATPase (data not shown)
VNUT = assay: Inhibitory effect on VNUT (data not shown)
[6] = test system: human epidermal keratinocytes; assay: ATP secretion from human epidermal keratinocytes promoted by ionomycin; format: cell-based
Protocol: Human epidermal keratinocytes (Cryopreserved HEK, Lot 1758, Cell Applications Inc.) were cultured using an Epivita Keratinocyte Growth Medium Kit according to the manufacturer's instructions. The procedure was as follows. A supplement medium was added to a hydrocortisone-containing basal medium included in the medium preparation kit to prepare a complete medium. The medium in the dish was removed by aspiration. The cells were washed with 5 ml of BSS (Gbco), and then the BSS was removed by aspiration. After addition of 5 to 6 ml of trypsin/EDTA solution (Gbco), the dish was incubated at 37° C. for 2 minutes. After addition of 5 ml of trypsin neutralization solution, the resulting cell suspension was transferred into two 15-ml Falcon tubes, and centrifuged at 200×g for 5 minutes. The supernatant was removed by aspiration, and the pelleted cell cluster was suspended in 2 ml of the medium at 4.5×10^5 cells/ml. An aliquot of the resulting cell suspension was cryopreserved, while another aliquot was cultured and subjected to measurement.
ATP secretion by human epidermal keratinocytes (hereinafter referred to as “keratinocytes”) was measured. Regarding control solutions, Krebs-Ringer HEPES supplemented with 0.2% BSA and 25 mM glucose (hereinafter also referred to as “Krebs/Iono(−)”) was used as a negative control, and a solution prepared by adding 5 μM ionomycin to this solution (hereinafter also referred to as “Krebs/Iono(+)”) was used as a positive control for ATP secretion. Ionomycin is a Ca^2+ ionophore. Addition of ionomycin to cells is known to promote influx of extracellular Ca^2+ into the cells to increase the intracellular Ca^2+ concentration, resulting in enhancement of ATP secretion. Test solutions were prepared by adding clodronate to Krebs/Iono(−) or Krebs/Iono(+) to a final concentration of 0.1 μM (hereinafter also referred to as “Clo/Iono(−)” or “Clo/Iono(+)”, respectively) (N=3).
Keratinocytes were cultured at 2.5×10^4 cells/well in a 24-well plate at 37° C. in 5% CO2 for 4 days. The medium was removed by aspiration, replaced with Krebs/Iono(−) or Clo/Iono(−), and incubated at 37° C. for 6 hours. These solutions were then removed by aspiration, and the content of each well incubated with Krebs/Iono(−) was replaced with 300 μl of a control solution (Krebs/Iono(−) or Krebs/Iono(+)), while the content of each well incubated with Clo/Iono(−) was replaced with 300 μl of a test solution (Clo/Iono(−) or Clo/Iono(+)). After further incubation at 37° C. for 20 minutes, 200 μl of the supernatant was collected. The collected supernatant was immediately treated on a heat block at 95° C. for 10 minutes, to inactivate ectonucleotidase. ATP in the supernatant was quantified using a Dojindo ATP assay kit−Luminescence (manufactured by Dojindo Laboratories).
Keratinocytes were cultured in the same manner as in Example 1, and ATP secretion from the keratinocytes was measured. Krebs/Iono(−), or a solution prepared by adding 10 μM imeglimin, 0.1 μM eicosapentaenoic acid (EPA), 1 μM EPA, or 10 μM clodronate to Krebs/Iono(−) was used (N=4).
After culturing keratinocytes, the medium was removed by aspiration, and replaced with Krebs/Iono(−), or Krebs/Iono(−) supplemented with 10 μM imeglimin, 0.1 μM EPA, 1 μM EPA, or 10 μM clodronate, followed by incubation for 6 hours. Subsequently, the solution was replaced with either a control solution (Krebs/Iono(−) or Krebs/Iono(+)) or a test solution (Krebs/Iono(+) supplemented with 10 μM imeglimin, 0.1 μM EPA, 1 μM EPA, or 10 μM clodronate), followed by incubation at 37° C. for 20 minutes and then collection of 200 μl of the supernatant. The collected supernatant was immediately treated on a heat block at 95° C. for 10 minutes to inactivate ectonucleotidase. ATP in the supernatant was quantified using a Dojindo ATP assay kit—Luminescence (manufactured by Dojindo Laboratories). […]

[7] = test system: human epidermal keratinocytes; assay: ATP secretion from keratinocytes upon LPS stimulation; format: cell-based; details: 10 μM, 18 hours, 10 μg/ml LPS, N=8 (FIG. 8)
Protocol: Keratinocytes were cultured in the same manner as in Example 1. Keratinocytes were cultured at 2.5×10^4 cells/well in a 24-well plate at 37° C. in 5% CO2 for 4 days. The medium was replaced with a test solution (Hanks' balanced salt solution (HBSS) (manufactured by Gibco) supplemented with imeglimin, metformin, or clodronate), and then incubation was performed at 37° C. in 5% CO2 for 18 hours. Thereafter, LPS (10 μg/ml) was added thereto, and incubation was further carried out for 10 minutes, followed by collection of 200 μl of the supernatant. The supernatant was immediately treated on a heat block at 95° C. for 10 minutes, and ATP in the supernatant was quantified using an ATP Assay Kit−Luminescence (manufactured by Dojindo) (N=8).

Structure (SMILES)	mode of inhibition of ATP transport by VNUT [1]	ATP transport ([1]; radiolabeled ATP, N=3 (FIG. 10))	IC50 ([1]; radiolabeled ATP, N=3 (FIG. 10), read-out: ID50 of ATP transport) [mM]	accumulation in the granules in keratinocytes [2]	effect on catecholamine transport system [3]	effect on ATP-dependent proton transport by V-ATPase (V-ATPase [4]; role: inhibitor, MANT-ATP up to 100 μM, N=1 (FIG. 12))	quenching of acridine orange fluorescence (V-ATPase [4]; role: substrate, 0.1 mM MANT-ATP) [%]	total acridine orange fluorescence quenching (V-ATPase [4]; role: substrate, 0.1 mM MANT-ATP followed by addition of ATP) [%]	inhibitory effect on V-ATPase (V-ATPase [5])	inhibitory effect on VNUT (VNUT)	ATP secretion inhibitory effect at low concentration ([6]; 0.1 μM, 6 h preincubation, ionomycin)	ATP secretion inhibitory effect at higher concentrations ([6]; up to 10 μM metformin)	LPS-stimulated ATP secretion [7]
CNc1ccccc1C(=O)O[C@H]1[C@@H](O)[C@H](n2cnc3c(N)ncnc32)O[C@@H]1COP(=O)(O)OP(=O)(O)OP(=O)(O)O [MANT-ATP, 2′/3′-O—(N-methyl-anthraniloyl)-adenosine-5′-triphosphate triethylammonium salt]	competitively inhibits	strongly inhibited ATP transport	~30	accumulation of MANT-ATP in the granules	hardly affected	did not affect	34	61.8					
CN(C)C(=N)NC(=N)N [metformin]									neither imeglimin nor metformin exhibited a strong inhibitory effect	neither imeglimin nor metformin exhibited a strong inhibitory effect	exhibit an ATP secretion inhibitory effect	decreased inhibitory effect at higher concentrations	almost completely inhibited
